Legend:
[1] = molecular target: T1, human GR (glucocorticoid receptor) (Homo sapiens, UniProt P04150); assay: Alternative Binding Assay Protocol (Method 2), 293-GR lysate, 3H-dexamethasone competition; details: 0.3 nM 3H-dexamethasone
T1 construct: expressed in transfected cells; host or cells: 293 cells
T1 sequence (P04150 1-777): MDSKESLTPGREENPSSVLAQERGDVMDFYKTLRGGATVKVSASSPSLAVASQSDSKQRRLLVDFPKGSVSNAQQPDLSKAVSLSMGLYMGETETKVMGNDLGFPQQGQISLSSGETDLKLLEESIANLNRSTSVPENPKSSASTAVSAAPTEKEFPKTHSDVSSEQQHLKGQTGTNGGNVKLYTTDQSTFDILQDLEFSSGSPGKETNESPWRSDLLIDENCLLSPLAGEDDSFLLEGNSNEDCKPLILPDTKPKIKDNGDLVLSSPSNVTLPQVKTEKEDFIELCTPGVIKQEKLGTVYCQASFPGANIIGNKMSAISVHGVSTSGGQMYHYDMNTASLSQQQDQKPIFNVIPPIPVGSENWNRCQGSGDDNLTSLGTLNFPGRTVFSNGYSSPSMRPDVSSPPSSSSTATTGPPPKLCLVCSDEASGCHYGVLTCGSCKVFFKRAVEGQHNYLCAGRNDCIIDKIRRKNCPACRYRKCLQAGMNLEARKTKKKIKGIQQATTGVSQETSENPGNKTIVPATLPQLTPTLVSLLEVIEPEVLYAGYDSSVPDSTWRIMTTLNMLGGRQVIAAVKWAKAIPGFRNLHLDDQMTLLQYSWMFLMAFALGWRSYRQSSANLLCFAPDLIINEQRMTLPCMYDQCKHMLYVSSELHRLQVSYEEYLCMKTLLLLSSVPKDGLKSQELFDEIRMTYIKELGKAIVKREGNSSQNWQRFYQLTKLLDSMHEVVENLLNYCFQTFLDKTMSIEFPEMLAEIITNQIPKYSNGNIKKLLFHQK
Method: Alternative Binding Assay Protocol for MR, GR, AR, and PR (Method 2):
Cell lysates from 293 cells overexpressing human GR (glucocorticoid receptor), AR (androgen receptor), MR (mineralocorticoid receptor) or PR (progesterone-receptor) are used for competition binding assays to determine Ki values for test compounds. […] Competing compounds are added at various concentraions in half-log increments. Non-specific binding is determined in the presence of 500 nM dexamethasone for GR binding, 500 nM aldosterone for MR binding, or 500 nM methyltrienolone for AR and PR binding. The binding reaction (140 μl) is incubated for overnight at 4° C., then 70 μl of cold charcoal-dextran buffer (containing per 50 ml of assay buffer, 0.75 g of charcoal and 0.25 g of dextran) is added to each reaction. Plates are mixed 8 minutes on an orbital shaker at 4° C. Plates are then centrifuged at 3,000 rpm at 4° C. for 10 minutes. An aliquot of 120 μl of the mix is transferred to another 96-well plate and 175 μl of Wallac Optiphase “Hisafe 3” scintillation fluid is added to each well. Plates are sealed and shaken vigorously on an orbital shaker. After an incubation of 2 hrs, plates are read in a Wallac Microbeta counter. […] The Kd for ^3H-dexamethasone for GR binding, ^3H-methyltrienolone for AR binding, ^3H-aldosterone for MR binding, or ^3H-methyltrienolone for PR binding, is determined by saturation binding. The IC50 values for compounds are converted to Ki using Cheng-Prusoff equation and the Kd determined by saturation binding assay.

human MR = molecular target: T2, human MR (Homo sapiens, UniProt P08235); assay: Mineralocorticoid Receptor Binding Assay (Method 1), [3H]-aldosterone competition; details: 0.5 nM [3H]-aldosterone, human MR expressed in Sf9 cells
T2 construct: The full length human MR gene is cloned from a human kidney or human brain cDNA library; inferred from own knowledge of the pAcHLT vector (N); made in house; host or cells: Sf9 insect cells (baculovirus)
T2 sequence (P08235 1-984): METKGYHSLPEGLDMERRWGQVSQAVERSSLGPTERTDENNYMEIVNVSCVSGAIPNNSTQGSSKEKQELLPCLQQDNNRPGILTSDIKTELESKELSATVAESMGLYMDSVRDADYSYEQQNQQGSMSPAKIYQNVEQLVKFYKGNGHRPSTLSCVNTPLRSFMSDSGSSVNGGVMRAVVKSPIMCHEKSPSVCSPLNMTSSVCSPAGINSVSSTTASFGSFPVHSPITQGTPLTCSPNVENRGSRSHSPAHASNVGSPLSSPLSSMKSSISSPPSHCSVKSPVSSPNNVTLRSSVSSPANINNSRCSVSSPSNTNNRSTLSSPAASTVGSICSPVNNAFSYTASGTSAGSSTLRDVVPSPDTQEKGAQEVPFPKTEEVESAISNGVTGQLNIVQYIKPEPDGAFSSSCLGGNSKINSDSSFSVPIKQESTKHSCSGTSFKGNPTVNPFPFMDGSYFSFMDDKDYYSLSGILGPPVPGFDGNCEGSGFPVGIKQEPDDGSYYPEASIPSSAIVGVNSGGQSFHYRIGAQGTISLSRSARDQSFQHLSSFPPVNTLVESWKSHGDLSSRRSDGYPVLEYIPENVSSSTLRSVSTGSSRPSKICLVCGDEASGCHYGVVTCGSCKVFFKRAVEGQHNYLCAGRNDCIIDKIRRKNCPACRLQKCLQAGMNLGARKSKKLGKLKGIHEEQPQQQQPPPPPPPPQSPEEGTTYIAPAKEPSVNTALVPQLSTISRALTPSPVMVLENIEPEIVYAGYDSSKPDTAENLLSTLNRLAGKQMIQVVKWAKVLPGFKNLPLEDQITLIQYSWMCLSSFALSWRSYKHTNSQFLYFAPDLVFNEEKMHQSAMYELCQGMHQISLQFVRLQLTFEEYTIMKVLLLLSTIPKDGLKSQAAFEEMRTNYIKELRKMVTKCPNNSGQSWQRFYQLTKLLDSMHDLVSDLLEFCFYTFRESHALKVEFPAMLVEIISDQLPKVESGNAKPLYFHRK
In short: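 Full-length human MR expressed in Sf9 cells via baculovirus; lysate supernatant (about 20-25 μg protein) incubated with 0.5 nM [3H]-aldosterone and test compound for about 16 h at 4° C. Buffer was Tris/molybdate/phosphate/pyrophosphate with 10% glycerol, pH 7.5; filter-bound complex counted by scintillation.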

[2] = test system: patients suffering from advanced CHF; details: in combination with standard CHF therapy; cited from earlier work

SMILES	Ki [1] [nM]	melting point	Ki (human MR) [nM]	reduced cardiac related mortality [2] [%]	reduced frequency of hospitalization [2] [%]
CCC(CC)(c1ccc2sc(N)nc2c1)c1c[nH]c2c(NS(C)(=O)=O)cccc12 [Example 141, N-{3-[1-(2-Amino-benzothiazol-5-yl)-1-ethyl-propyl]-1H-indol-7-yl}-methanesulfonamide]	< 500	260 to 263 °C (dec.)	< 500	–	–
CCC(CC)(c1ccc2ocnc2c1)c1c[nH]c2c(NS(C)(=O)=O)cccc12 [Example 146, N-[3-(1-Benzooxazol-5-yl-1-ethyl-propyl)-1H-indol-7-yl]-methanesulfonamide]	< 500	132 to 135 °C	< 500	–	–
CC(=O)S[C@@H]1CC2=CC(=O)CC[C@]2(C)[C@H]2CC[C@@]3(C)[C@@H](CC[C@@]34CCC(=O)O4)[C@H]12 [spironolactone]	–	–	–	30	35

The next lines start with results.

Ki [1] [nM]	melting point	Ki (human MR) [nM]	SMILES	reduced cardiac related mortality [2] [%]	reduced frequency of hospitalization [2] [%]
< 500	286 to 288 °C	< 500	CCC(CC)(c1ccc2nc(NC(C)=O)sc2c1)c1c[nH]c2c(NS(C)(=O)=O)cccc12 [Example 147, N-{6-[1-Ethyl-1-(7-methanesulfonylamino-1H-indol-3-yl)-propyl]-benzothiazol-2-yl}-acetamide]	–	–
< 500	180 to 190 °C	< 500	CCC(CC)(c1ccc2nc(Cl)sc2c1)c1c[nH]c2c(NS(C)(=O)=O)cccc12 [Example 148, N-{3-[1-(2-Chloro-benzothiazol-6-yl)-1-ethyl-propyl]-1H-indol-7-yl}-methanesulfonamide]	–	–
< 500	165 to 172 °C	< 500	CCC(CC)(c1ccc2[nH]nnc2c1)c1c[nH]c2c(NS(C)(=O)=O)cccc12 [Example 153, N-{3-[1-(3H-Benzotriazol-5-yl)-1-ethyl-propyl]-1H-indol-7-yl}-methanesulfonamide]	–	–
< 500	217 to 220 °C	< 500	CCC(CC)(c1ccc2sc(Cl)nc2c1)c1c[nH]c2c(NS(C)(=O)=O)cccc12 [Example 161, N-{3-[1-(2-Chloro-benzothiazol-5-yl)-1-ethyl-propyl]-1H-indol-7-yl}-methanesulfonamide]	–	–

Reference: US20060235222A1, “Indole-derivative modulators of steroid hormone nuclear receptors” (ELI LILLY AND COMPANY, priority 2003, published 2006)
